From patent publication US7691842B2, “Tricyclic 6-alkylidene-penems as β-lactamase inhibitors” (Wyeth LLC, priority 2002, dated 2010)

Assays:
[1] = tested on: Clinical isolates that have been adapted to cause infection in mice; experiment: In vivo antibacterial protection (7 day survival of infected mice, ED50); design: species or system mice strain CD-1
Source text: In Vivo Antibacterial Protection
Female mice strain CD-1, approximately 18-22 grams, were received from Charles River Laboratories and quarantined 7 days prior to use. In addition, mice may be rendered neutropenic using cytoxan for particular studies.
Clinical isolates that have been adapted to cause infection in mice, are used in the experiment, including infections with strains of E. coli, K. pneumoniae, M. morganii, E. cloacae, S. marcescens, C. freundii, staphylococci, streptococci, P. aeruginosa and N. gonorrhoeae.
Mice are challenged by injecting 0.5 ml intraperitoneally or 0.05 ml intranasally of a predetermined bacterial inoculum suspended in broth, saline or hog gastric mucin (supplemented with dried bovine hemoglobin for N. gonorrhoeae). […] Antibacterial doses (dose concentration prepared by two fold serial dilutions of the antibiotic) are dissolved or suspended in 0.2% aqueous agar or methocel, phosphate buffered saline or an adjuvant are administered orally, subcutaneously or intravenously in the following manner: • a) Orally or subcutaneously: Dose volume of 0.5 ml administered ½ hr after infection. A second dose may be administered 3 hr. after infection for treatment of infections with more virulent organisms. • b) Intravenously: Dose volume of 0.2 ml, administered ½ hr. after infection. For the treatment of infections with more virulent organisms, more doses, up to 48 hr may be administered. (Intravenous dosing will not exceed 3 doses/24 hr period.) • c) Oral pretreatment: Under special circumstances, the pH of the stomach needs to be adjusted in order to increase the gastric stability of the antibiotic. For this purpose, 0.5 ml of phosphate buffered saline (pH7.8, 0.06M) (or specific approved adjuvant) is administered orally ½ hr after infection, followed 5 minutes later by 0.5 ml of antibiotic (also orally) contained in phosphate buffered saline (pH7.8, 0.06M). Animal Species
A detailed explanation as to the number of animals needed for the determination of in vivo efficacy follows: • A) Novel antibiotics are tested at 5 different dose levels with 5 mice per dose level at each of three routes of administration (oral, subcutaneous and intravenous). […] This would require 25 mice/route with 3 routes/antibiotic or 75 mice per novel compound tested. One to two novel antibiotics will be tested per experiment (75-150 mice) • B) The effectiveness of the new compound must be compared to that of a standard, or antibiotic of known effectiveness. Known or previously tested antibiotics are tested at 5 dose levels with 5 mice per dose level by a single route of administration, for a total of 25 mice/antibiotic. Usually 3-6 antibiotics will be tested per experiment. (75-150 mice). • C) Untreated controls—In each of the above tests, untreated animals are infected with 3 different concentrations of bacterial inoculum with 10 mice per concentration (30 mice total in each and every test). These untreated controls are used to determine and maintain the infection level between 10-100 LD50s as required for test to test comparison and validity. Determination of Protective Effects of Antibacterial Agents:
The protective effects of the antibacterial agent(s) are measured by the survival of the infected untreated as compared to the treated animals. For this determination, animals are observed for 7 days after treatment. A census of survivors is taken twice daily and at that time dead as well as moribund animals are removed. The 7 day survival ratio from three separate tests are pooled for estimation of median effective dose (ED50) by computerized program for probit analysis (Cleeland, R. and E. Squires. 1991. Evaluation of New Antimicrobials in Vitro and in Experimental Animal Infections. In Antibiotics in Laboratory Medicine”, 3rd. ed., edited by Victor Lorian. Willams and Wilkins Baltimore, Md. pp. 752-783). […]

[2] = tested on: P. aeruginos GC1764 (Ampc); experiment: Antimicrobial susceptibility testing, microbroth dilution MIC of piperacillin + inhibitor; assay type: cell-based; settings: piperacillin combined with constant 4 μg/ml inhibitor; Inc: 35° C. for 18 hours
Method: (§1) Antimicrobial susceptibility testing. The in vitro activities of the antibiotics were determined by the microbroth dilution method as recommended by the National Committee for Clinical Laboratory Standards (NCCLS). (NCCLS. 2000. Methods for Dilution Antimicrobial Susceptibility Tests for Bacteria That Grow Aerobically; Approved Standards: M7-A5, vol. 19. National Committee for Clinical Laboratory Standards, Villanova, Pa.). Mueller-Hinton it broth (MHBII)(BBL Cockeysville, Md.), was used for the testing procedure. Microtiter plates containing 50 μl per well of two-fold serial dilutions of piperacillin combined with a constant amount (4 μg/ml) of a B-lactamase inhibitor (final concentration) were inoculated with 50 μl of inoculum to yield the appropriate density (10^5 CFU/ml) in 100 μl. The plates were incubated for 18-22 hours at 35° C. in ambient air.

E. Coli GC2203 = experiment: as above; assay type: cell-based; settings: piperacillin combined with constant 4 μg/ml inhibitor; Inc: 35° C. for 18 hours
Method: as §1

E. Coli GC2847 (TEM-1) = experiment: as above; assay type: cell-based; settings: piperacillin combined with constant 4 μg/ml inhibitor; Inc: 35° C. for 18 hours
Method: as §1

E. Coli GC2844 = experiment: as above; assay type: cell-based; settings: piperacillin combined with constant 4 μg/ml inhibitor; Inc: 35° C. for 18 hours
Method: as §1

E. Coli GC2920 (IRT-2) = experiment: as above; assay type: cell-based; settings: piperacillin combined with constant 4 μg/ml inhibitor; Inc: 35° C. for 18 hours
Method: as §1

E. Coli GC2894 (Ampc) = experiment: as above; assay type: cell-based; settings: piperacillin combined with constant 4 μg/ml inhibitor; Inc: 35° C. for 18 hours
Method: as §1

[3] = tested on: S. Marcescens GC1781 Sme-1 + Ampc; experiment: as above; assay type: cell-based; settings: piperacillin combined with constant 4 μg/ml inhibitor; Inc: 35° C. for 18 hours
Method: as §1

S. aureus GC2216 = experiment: as above; assay type: cell-based; settings: piperacillin combined with constant 4 μg/ml inhibitor; Inc: 35° C. for 18 hours
Method: as §1

E. Cloacae GC1477 (Ampc) = experiment: as above; assay type: cell-based; settings: piperacillin combined with constant 4 μg/ml inhibitor; Inc: 35° C. for 18 hours
Method: as §1

class C enzyme AmpC = class C enzyme AmpC (Enterobacter cloacae, UniProt P05364); experiment: biochemical; design: species or system Enterobacter cloaca; settings: enzyme 2.1 nM; 10 min preincubation at 25° C.; nitrocefin 50 μg/ml; 50 mM PO4, pH 7.0; read-out: IC50 (nM) Class C AmpC
Chain of class C enzyme AmpC (P05364 21-381): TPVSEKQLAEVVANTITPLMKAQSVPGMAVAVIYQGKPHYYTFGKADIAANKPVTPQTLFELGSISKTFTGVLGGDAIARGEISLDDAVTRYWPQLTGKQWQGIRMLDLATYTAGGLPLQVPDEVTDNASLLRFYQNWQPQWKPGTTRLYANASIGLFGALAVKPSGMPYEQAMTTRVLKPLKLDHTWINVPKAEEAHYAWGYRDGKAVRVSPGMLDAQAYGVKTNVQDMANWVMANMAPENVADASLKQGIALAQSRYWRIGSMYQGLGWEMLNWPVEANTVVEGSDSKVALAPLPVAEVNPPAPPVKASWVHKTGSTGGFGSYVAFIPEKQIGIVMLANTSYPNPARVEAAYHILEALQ
Method: (§2) IC50 Determination for the Penem Inhibitor
(§3) β-Lactamase inhibitory activity of the penem inhibitors was determined spectrophotometrically as described by Bush et al., [Bush, K., Macalintal, C., Rasmussen, B. A., Lee, V. and Yang, Y. Antimicrobial Agents and Chemotherapy 1993, 37, 851]. Homogeneously purified class A β-lactamases TEM-1 from E. Coli and Imi-1 from Enterobacter cloacae, class B enzyme CcrA from Bacteroides fragilis and class C enzyme AmpC from Enterobacter cloaca were employed in the assay. The enzyme concentrations for TEM-1, Imi-1, CcrA and AmpC were 4.3, 7.1, 1.2 and 2.1 nM, respectively. A wide range of inhibitor concentrations were prepared in 50 mM PO4, pH 7.0 to include the possible IC50 values. The substrate used to initiate the enzyme reaction was nitrocefin at 50 μg/ml in the same buffer as the inhibitor. Initially the enzyme and inhibitor (20 μl each) were preincubated for 10 minutes at 25° C. prior to the addition of 160 μl volume of nitrocefin. Initial rates of hydrolysis were monitored for 5 minutes at 495 nm using a Molecular Devices Spectra Max 250 with kinetic protocol of SoftMax Program. Readings from the Spectra Max 250 were exported and transferred to Microsoft Excel. The percent of inhibition of each inhibitor concentration was calculated based on the control enzyme activity. The inhibitor concentration that caused a 50% reduction in the enzymatic activity (IC50) was determined graphically.

[4] = molecular target: class A β-lactamase TEM-1 (Escherichia coli, UniProt P62593); experiment: β-Lactamase inhibition, IC50 determination (nitrocefin, spectrophotometric); assay type: biochemical, E. Coli; settings: enzyme 4.3 nM; 10 min preincubation at 25° C.; nitrocefin 50 μg/ml; 50 mM PO4, pH 7.0; read-out: IC50 (nM) Class A TEM-1
Chain of class A β-lactamase TEM-1 (P62593 24-286 limits assumed): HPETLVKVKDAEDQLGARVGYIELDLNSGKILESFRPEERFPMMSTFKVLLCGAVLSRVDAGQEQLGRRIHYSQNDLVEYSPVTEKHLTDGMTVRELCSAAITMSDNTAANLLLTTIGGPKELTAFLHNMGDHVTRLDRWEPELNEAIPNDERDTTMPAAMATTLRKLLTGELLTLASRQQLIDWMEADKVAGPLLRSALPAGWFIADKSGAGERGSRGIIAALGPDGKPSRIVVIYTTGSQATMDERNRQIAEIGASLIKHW
Method: as §2, §3

class B enzyme CcrA = class B enzyme CcrA (Bacteroides fragilis, UniProt P25910); experiment: as above; assay type: biochemical; settings: enzyme 1.2 nM; 10 min preincubation at 25° C.; nitrocefin 50 μg/ml; 50 mM PO4, pH 7.0; read-out: IC50 (nM) Class B Ccr
Chain of class B enzyme CcrA (P25910 19-249): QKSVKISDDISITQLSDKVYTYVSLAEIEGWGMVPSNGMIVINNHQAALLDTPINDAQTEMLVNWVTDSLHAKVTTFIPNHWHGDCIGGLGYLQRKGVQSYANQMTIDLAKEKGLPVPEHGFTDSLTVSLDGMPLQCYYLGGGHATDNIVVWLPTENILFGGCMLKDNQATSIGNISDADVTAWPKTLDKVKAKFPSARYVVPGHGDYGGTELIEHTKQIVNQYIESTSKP
Method: as §2, §3

[5] = molecular target: class A β-lactamase Imi-1 (Enterobacter cloacae, UniProt Q46991); experiment: as above; assay type: biochemical; settings: enzyme 7.1 nM; 10 min preincubation at 25° C.; nitrocefin 50 μg/ml; 50 mM PO4, pH 7.0; read-out: IC50 (nM) Class A Imi
Chain of class A β-lactamase Imi-1 (Q46991 entry or part of it): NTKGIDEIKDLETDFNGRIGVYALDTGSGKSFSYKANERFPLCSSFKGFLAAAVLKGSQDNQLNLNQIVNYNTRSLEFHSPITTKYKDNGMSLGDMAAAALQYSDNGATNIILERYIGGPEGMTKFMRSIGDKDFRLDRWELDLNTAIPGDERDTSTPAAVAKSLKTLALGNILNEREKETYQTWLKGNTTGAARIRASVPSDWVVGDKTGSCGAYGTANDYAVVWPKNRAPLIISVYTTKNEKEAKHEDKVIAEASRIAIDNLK
Method: as §2, §3

Structure (SMILES)	ED50 ([1]; Ratio of Piperacillin Inhibitor not given) [mg/kg]	Minimal Inhibitory Concentration P. aeruginos GC1764 (Ampc) [2] [µg/mL]	Minimal Inhibitory Concentration E. Coli GC2203 (E. Coli GC2203) [µg/mL]	Minimal Inhibitory Concentration E. Coli GC2847 (TEM-1) (E. Coli GC2847 (TEM-1)) [µg/mL]	Minimal Inhibitory Concentration E. Coli GC2844 (E. Coli GC2844) [µg/mL]	Minimal Inhibitory Concentration E. Coli GC2920 (IRT-2) (E. Coli GC2920 (IRT-2)) [µg/mL]	Minimal Inhibitory Concentration E. Coli GC2894 (Ampc) (E. Coli GC2894 (Ampc)) [µg/mL]	Minimal Inhibitory Concentration S. Marcescens GC1781 Sme-1 + Ampc [3] [µg/mL]	Minimal Inhibitory Concentration S. aureus GC2216 (S. aureus GC2216) [µg/mL]	Minimal Inhibitory Concentration E. Cloacae GC1477 (Ampc) (E. Cloacae GC1477 (Ampc)) [µg/mL]	IC50 (class C enzyme AmpC) [nM]	IC50 [4] [nM]	IC50 (class B enzyme CcrA) [nM]	IC50 [5] [nM]	ED50 ([1]; Ratio of Piperacillin Inhibitor 4:1) [mg/kg]
O=C(O)C1=CS[C@@H]2/C(=C\c3cn4c5c(sc4n3)COCC5)C(=O)N12 [Example 15, (5R),(6Z)-6-(5,8-dihydro-6H-imidazo[2,1-b]pyrano[4,3-d][1,3]thiazol-2-ylmethylene)-7-oxo-4-thia-1-azabicyclo[3.2.0]hept-2-ene-2-carboxylic acid]	25	4	2	4	2	2	2	1	0.05	16	1.5	2.8	200	100	–
O=C(O)C1=CS[C@@H]2/C(=C\c3ccc4c(c3)sc3nccn34)C(=O)N12 [Example 16, (5R),(6Z)-6-(imidazo[2,1-b]bebzothiazol-7-ylmethylene)-7-oxo-4-thia-1-azabicyclo[3.2.0]hept-2-ene-2-carboxylic acid]	–	32	4	64	2	2	32	1	0.05	>64	9.5	4.5	130	70	–
O=C(O)C1=CS[C@@H]2/C(=C\c3cn4c5c(sc4n3)CCC5)C(=O)N12 [Example 5, (5R),(6Z)-6-(6,7-dihydro-5H-cyclopenta[d]imidazo[2,1-b][1,3]thiazol-2-ylmethylene)-7-oxo-4-thia-1-azabicyclo[3.2.0]hept-2-ene-2-carboxylic acid]	–	1	2	4	2	2	2	0.5	<0.06	16	2.1	1.4	240	–	19.5
